In brackets after ≈: the same amount, converted by molar mass.
What was measured:
[1] = test system: T. vaginalis; set-up: method as in PMID 29390009; details: cited from earlier work
[2] = test system: NIH/3T3 cells; details: mouse, 24 h, 100 µM
Protocol: (§1) Cultures of Human foreskin fibroblast (HFF; HFF-1 ATCC® SCRC-1041™), Madin–Darby bovine kidney (MDBK; ECACC) and mouse embryonic fibroblast (NIH/3T3; ATCC® CRL-1658™) cell lines were retrieved from −80 °C stock and cultured continuously at 37 °C under atmosphere 5% CO2 in our laboratory. The NIH/3T3 and HFF cell lines were maintained in Dulbecco Modified Eagle’s Medium (DMEM; Gibco, Grand Island, NY, USA), while MDBK cell line grown in Minimum Essential Medium Eagle (MEM; Gibco). Each medium was treated with 1% glutamine, 10% fetal bovine serum and 0.5% penicillin/streptomycin (Gibco). Every 72 to 96 h, the medium was replaced, and once 80% confluence was reached, the cell collection was performed by sub-culture protocol. To confirm the absence of mycoplasma contamination, 4,6-diamidino-2-phenylindole dihydrochloride (Sigma-Aldrich) stain was used [9].
(§2) The cell viability test was conducted in a 96-well plate as described elsewhere [4, 9, 51, 52]. Briefly, an aliquot of (100 µL) cells was implanted at a concentration of 5 × 10^4 cells/mL in DMEM or MEM with fetal bovine serum and incubated overnight under atmosphere 5% CO2 at 37 °C for attachment. […] After a 24-h incubation, Cell Counting Kits-8 (CCK-8) (10 µL) was added per well followed by the incubation of the plate for another 3 hours and a microplate reader was used to measure the absorbance at 450 nm.

[3] = test system: MDBK cells; assay: cells; type: cell-based, bovine
Protocol: as §1, §2

[4] = test system: HFF cells; type: cell-based; details: human, 24 h, 100 µM
Protocol: as §1, §2

[5] = test system: L. donovani promastigotes; set-up: method as in PMID 2360830; details: read-out: IC50 leishmanicidal effect; cited from earlier work
[6] = test system: B. microti; assay: in vivo chemotherapeutic efficacy in B. microti-infected BALB/c mice
Protocol: MEBV and AERC were examined for their in vivo chemotherapeutic efficacy using B. microti-infected BALB/c mice according to a procedure described elsewhere. Briefly, twenty-five mice were placed in an environment free from pathogens with 22 °C temperature and adjusted humidity and under 12 h light and 12 h darkness and randomly distributed into five groups. All mice in groups 2 through 5 obtained 500 μL of 1 × 10^7 B. microti-iRBC by intraperitoneal (i.p.) injection. Group 1 served as a negative control and was neither infected nor treated. At 1% parasitemia, drug treatment of the mice […]. continuing for five days. Group 2 act as a positive control group and received 95% double-distilled water (DDW) and 5% DMSO. Groups 3 and 4 administered 150 mg/kg body weight (BW) of MEBV and AERC by the oral route, respectively. […] Furthermore, the hematological parameters, including HGB, RBCs, and HCT percentage were examined every four days using an automatic hematology analyzer (Celltac α MEK-6450, Nihon Kohden, Tokyo, Japan) to detect the effect of MEBV and AERC on the retrogression of anemia related to Babesia infection. […]

[7] = test system: Trypanosoma brucei brucei; set-up: method as in PMID 28654013; details: cited from earlier work

C=CCc1ccc(OC)c(OC)c1 [methyleugenol]
IC50 growth of T. vaginalis [1]: 100 µg/mL

O=C1C(O)=C([C@H]2CC[C@H](c3ccc(Cl)cc3)CC2)C(=O)c2ccccc21 [ATV, atovaquone]
effect on cell viability [2]: neither DMA nor ATV (final concentration 100 µM) restricted the viability | effect on cell viability ([3]; bovine, 24 h, 100 µM): neither DMA nor ATV (final concentration 100 µM) restricted the viability | effect on cell viability [4]: neither DMA nor ATV (final concentration 100 µM) restricted the viability

CC(C)/N=c1\cc2n(-c3ccc(Cl)cc3)c3ccccc3nc-2cc1Nc1ccc(Cl)cc1 [CLF, clofazimine]
EC50 ([3]; Bos taurus, MDBK cells, reference drug, read-out: EC50 MDBK cell viability): 34 ± 3.4 µM

COc1ccc2cc3[n+](cc2c1OC)CCc1cc2c(cc1-3)OCO2 [berberine]
IC50 [5]: 7.1 µM

C=C1CC/C=C(\C)CC[C@@H]2[C@@H]1CC2(C)C [β-caryophyllene]
IC50 growth of T. vaginalis [1]: 100 µg/mL

CC(=O)NCC(=O)O.CC(=O)NCC(=O)O.N=C(N)c1ccc(N=NNc2ccc(C(=N)N)cc2)cc1 [DMA, diminazene aceturate]
peak parasitemia level ([6]; 25 mg/kg BW, 5 days (day 4 to 8 p.i.), B. microti-infected BALB/c mice): 5% | inhibition of B. microti multiplication ([6]; 25 mg/kg, eighth day post-infection): 92%

CC(C)=CCCC(C)c1ccc(C)cc1 (stereo not drawn) [α-curcumene]
IC50 antitrypanosomal activity [7]: 13.38 µg/mL (≈ 66.1 µM) | IC50 growth of T. vaginalis [1]: 100 µg/mL

Source: PMC7037273, “Phytochemical Screening and Antiprotozoal Effects of the Methanolic Berberis Vulgaris and Acetonic Rhus Coriaria Extracts” (Molecules, 2020)
